Source: US10556900B2, “TrkA kinase inhibitors, compositions and methods thereof” (Merck Sharp & Dohme Corp., priority 2015, dated 2020)

Target: human TrkA receptor (Homo sapiens (Human), UniProt P04629)
Experiment: TrkA functional activity, DiscoverX PathHunter assay (NGF-stimulated U2OS cells)
Type: cell-based
Conditions: U2OS cells expressing human TrkA-Prolink, Shc1-EA and p75NTR; compound 1 h, then NGF (~80% of maximal response) 3 h; luminescence
Description: TrkA functional activity was measured using a DiscoverX PathHunter assay. In this assay, U2OS cells express the human TrkA receptor as a fusion with the weakly complementing fragment of B-galactosidase, which DiscoverX calls “Prolink (PK)”; additionally, Shc1 is fused with a larger fragment, which is called “Enzyme Acceptor (EA)”. Activation of the TrkA receptor, upon NGF addition, results in the kinase domain being phosphorylated, resulting in subsequent recruitment of Shc1-EA protein. That recruitment results in an active B-galactosidase enzyme that is detected by addition of a chemiluminescent substrate. The human p75^NTR protein was also expressed as a co-receptor for NGF.
All reagents were purchased from DiscoverX, except for the receptor agonists (NGF, BDNF, NT3) which were purchased from Peprotech. Cells were expanded and frozen into cryovials, and stored in the vapor phase of liquid nitrogen, and thawed immediately before use. Thawed cells were added to a 384-well plate at 7500 cells/well, and allowed to incubate overnight. Compound at various concentrations was added the following morning and allowed to incubate on cells for 1 h. Then, NGF was added at a concentration sufficient to elicit ˜80% of a maximal response and allowed to incubate for 3 h at ambient temperature. DiscoverX PathHunter detection reagent was then added and the plate was further incubated for 1 h in the dark. The plate was then read via luminescence on the Perkin Elmer Envision.

Sequence of human TrkA receptor (P04629 33-796): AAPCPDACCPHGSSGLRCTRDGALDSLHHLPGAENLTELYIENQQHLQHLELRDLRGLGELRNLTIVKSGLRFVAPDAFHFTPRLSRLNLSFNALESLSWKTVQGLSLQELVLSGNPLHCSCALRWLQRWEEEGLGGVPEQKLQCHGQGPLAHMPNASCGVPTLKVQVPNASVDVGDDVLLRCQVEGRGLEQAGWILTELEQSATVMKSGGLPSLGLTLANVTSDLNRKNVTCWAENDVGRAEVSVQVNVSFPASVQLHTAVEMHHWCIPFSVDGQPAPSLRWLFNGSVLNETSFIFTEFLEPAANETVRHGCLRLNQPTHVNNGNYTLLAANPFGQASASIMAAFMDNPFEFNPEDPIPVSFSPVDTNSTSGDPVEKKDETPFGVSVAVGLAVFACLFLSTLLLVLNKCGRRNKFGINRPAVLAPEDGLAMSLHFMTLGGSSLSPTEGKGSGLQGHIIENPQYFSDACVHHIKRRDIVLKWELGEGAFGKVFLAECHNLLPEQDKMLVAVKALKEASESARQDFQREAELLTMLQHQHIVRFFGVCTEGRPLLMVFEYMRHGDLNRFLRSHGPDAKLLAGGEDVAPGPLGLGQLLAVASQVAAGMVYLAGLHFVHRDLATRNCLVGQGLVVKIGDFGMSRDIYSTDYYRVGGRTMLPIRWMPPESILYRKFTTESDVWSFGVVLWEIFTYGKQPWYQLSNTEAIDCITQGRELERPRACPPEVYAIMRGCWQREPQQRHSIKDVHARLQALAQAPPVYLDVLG

Row | SMILES | IC50
1 | Cn1ccc(-c2cc(C(=O)Nc3c(-c4ccccc4)ccc4c(CO)cnn34)c(F)cc2C(F)(F)F)n1 [Compound 39, 2-fluoro-N-[3-(hydroxymethyl)-6-phenylpyrazolo[1,5-a]pyridin-7-yl]-5-(1-methyl-1H-pyrazol-3-yl)-4-(trifluoromethyl)benzamide] | 0.33 nM
2 | CC(C)(O)c1cnc2c(NC(=O)c3cc(-c4ncccn4)c(C(F)(F)F)cc3F)c(-c3cccc(CO)c3)ccn12 [Compound 57, 2-Fluoro-N-(7-(3-(hydroxymethyl)phenyl)-3-(2-hydroxypropan-2-yl)imidazo[1,2-a]pyridin-8-yl)-5-(pyrimidin-2-yl)-4-(trifluoromethyl)benzamide] | 201 nM
3 | Cc1ccccc1-c1ccn2c(C(C)(C)O)cnc2c1NC(=O)c1cc(-c2ncccn2)c(C(F)(F)F)cc1F [Compound 55, 2-Fluoro-N-(3-(2-hydroxypropan-2-yl)-7-(o-tolyl)imidazo[1,2-a]pyridin-8-yl)-5-(pyrimidin-2-yl)-4-(trifluoromethyl)benzamide] | 82 nM
4 | Cc1ccccc1-c1ccn2c(C(N)=O)cnc2c1NC(=O)c1cc(-c2ccn(C)n2)c(C(F)(F)F)cc1F [Compound 56, 8-(2-Fluoro-5-(1-methyl-1H-pyrazol-3-yl)-4-(trifluoromethyl)benzamido)-7-(o-tolyl)imidazo[1,2-a]pyridine-3-carboxamide] | 29 nM
5 | CC(O)c1cnc2c(NC(=O)c3cc(-c4ccccn4)c(C(F)(F)F)cc3F)c(-c3ccccc3)ccn12 (single isomer, unassigned) [Compound 29, (R) or (S)-2-fluoro-N-[3-(1-hydroxyethyl)-7-phenylimidazo[1,2-a]pyridin-8-yl]-5-pyridin-2-yl-4-(trifluoromethyl)benzamide] | 1.7 nM
6 | CC(O)c1n[nH]c2c(NC(=O)c3ccc(C(F)(F)F)c(-c4ccn(C)n4)c3)c(-c3ccccc3)ccc12 (single isomer, unassigned) [Compound 48, (R) or (S)-N-[3-(1-hydroxyethyl)-6-phenyl-1H-indazol-7-yl]-3-(1-methyl-1H-pyrazol-3-yl)-4-(trifluoromethyl)benzamide] | 0.9 nM
7 | Cn1ccc(-c2cc(C(=O)Nc3c(-c4ccccc4)ccc4nc(C(C)(C)O)cn34)ccc2C(F)(F)F)n1 [Compound 1, N-(2-(2-Hydroxypropan-2-yl)-6-phenylimidazo[1,2-a]pyridin-5-yl)-3-(1-methyl-1H-pyrazol-3-yl)-4-(trifluoromethyl)benzamide] | 17 nM
8 | CC(C)(O)c1cnc2c(NC(=O)c3cc(-c4ncccn4)c(C(F)(F)F)cc3F)c(-c3ccc(F)cc3)ccn12 [Compound 54, 2-fluoro-N-[7-(4-fluorophenyl)-3-(1-hydroxy-1-methylethyl)imidazo[1,2-a]pyridin-8-yl]-5-pyrimidin-2-yl-4-(trifluoromethyl)benzamide] | 58 nM
9 | Cc1ncc2nc(-c3ccccc3)c(NC(=O)c3ccc(C(F)(F)F)c(-c4ccn(C)n4)c3)cn12 [Compound 62, 3-(1-Methyl-1H-pyrazol-3-yl)-N-(6-methyl-2-phenylimidazo[1,5-a]pyrimidin-3-yl)-4-(trifluoromethyl)benzamide] | 47 nM
10 | O=C(Nc1c(-c2ccccc2)ccn2c(CO)cnc12)c1cc(-c2ncccn2)c(C(F)(F)F)cc1F [Compound 8, 2-Fluoro-N-(3-(hydroxymethyl)-7-phenylimidazo[1,2-a]pyridin-8-yl)-5-(pyrimidin-2-yl)-4-(trifluoromethyl)benzamide] | 6.2 nM
11 | Cn1ccc(-c2cc(C(=O)Nc3cn4c(C(=O)O)ncc4nc3-c3ccccc3)c(F)cc2C(F)(F)F)n1 [Compound 63, 3-(2-Fluoro-5-(1-methyl-1H-pyrazol-3-yl)-4-(trifluoromethyl)benzamido)-2-phenylimidazo[1,5-a]pyrimidine-6-carboxylic acid] | 32 nM
12 | Cn1ccc(-c2cc(C(=O)Nc3c(-c4ccccc4)ccn4ccnc34)ccc2C(F)(F)F)n1 [Compound 34, 3-(1-Methyl-1H-pyrazol-3-yl)-N-(7-phenylimidazo[1,2-a]pyridin-8-yl)-4-(trifluoromethyl)benzamide] | 53 nM
13 | CC(C)(O)c1cnc2c(NC(=O)c3cc(-c4ncccn4)c(C(F)(F)F)cc3F)c(-c3ccccc3)ncn12 [Compound 73, 2-Fluoro-N-(3-(2-hydroxypropan-2-yl)-7-phenylimidazo[1,2-c]pyrimidin-8-yl)-5-(pyrimidin-2-yl)-4-(trifluoromethyl)benzamide] | 4.8 nM
14 | CC(O)c1n[nH]c2c(NC(=O)c3cc(-c4ncccn4)c(C(F)(F)F)cc3F)c(-c3ccccc3)ccc12 (racemic) [Compound 47, (R) and (S)-2-Fluoro-N-(3-(1-hydroxyethyl)-6-phenyl-1H-indazol-7-yl)-5-(pyrimidin-2-yl)-4-(trifluoromethyl)benzamide] | 4.5 nM
15 | CC(C)(O)c1cnc2c(NC(=O)c3cc(-c4cc[nH]n4)c(C(F)(F)F)cc3F)c(-c3ccccc3)ccn12 [Compound 31, 2-fluoro-N-[3-(1-hydroxy-1-methylethyl)-7-phenylimidazo[1,2-a]pyridin-8-yl]-5-(1H-pyrazol-3-yl)-4-(trifluoromethyl)benzamide] | 0.94 nM
16 | CC(C)(O)c1cnn2c(NC(=O)c3cc(-c4ncccn4)c(C(F)(F)F)cc3F)c(-c3ccccc3)ccc12 [Compound 38, 2-fluoro-N-[3-(1-hydroxy-1-methylethyl)-6-phenylpyrazolo[1,5-a]pyridin-7-yl]-5-pyrimidin-2-yl-4-(trifluoromethyl)benzamide] | 1.8 nM
17 | Cn1ccc(-c2cc(C(=O)Nc3c(-c4ccccc4)ccn4c(C(C)(C)O)cnc34)c(F)cc2C(F)(F)F)n1 [Compound 16, 2-fluoro-N-[3-(1-hydroxy-1-methylethyl)-7-phenylimidazo[1,2-a]pyridin-8-yl]-5-(1-methyl-1H-pyrazol-3-yl)-4-(trifluoromethyl)benzamide] | 0.2 nM

Continued by falling IC50, values first:

Row | IC50 | SMILES
18 | 67 nM | Cn1ccc(-c2cc(C(=O)Nc3c(-c4ccccc4)ccc4sc(C(C)(C)O)nc34)ccc2C(F)(F)F)n1 [Compound 4, N-(2-(2-Hydroxypropan-2-yl)-5-phenylbenzo[d]thiazol-4-yl)-3-(1-methyl-1H-pyrazol-3-yl)-4-(trifluoromethyl)benzamide]
19 | 11 nM | CC(O)c1nc2c(NC(=O)c3ccc(C(F)(F)F)c(-c4ccn(C)n4)c3)c(-c3ccccc3)ccc2s1 (racemic) [Compound 6, (R and S)—N-(2-(1-Hydroxyethyl)-5-phenylbenzo[d]thiazol-4-yl)-3-(1-methyl-1H-pyrazol-3-yl)-4-(trifluoromethyl)benzamide]
20 | 6.7 nM | CC(C)(O)c1cnc2c(NC(=O)c3cc(-c4ccccn4)c(C(F)(F)F)cc3Cl)c(-c3ccccc3)ccn12 [Compound 18, 2-chloro-N-[3-(1-hydroxy-1-methylethyl)-7-phenylimidazo[1,2-a]pyridin-8-yl]-5-pyridin-2-yl-4-(trifluoromethyl)benzamide]
21 | 5.7 nM | Cn1ccc(-c2cc(C(=O)Nc3c(-c4ccccc4)ccn4c(C(N)=O)cnc34)ccc2C(F)(F)F)n1 [Compound 12, 8-({[3-(1-methyl-1H-pyrazol-3-yl)-4-(trifluoromethyl)phenyl]carbonyl}amino)-7-phenylimidazo[1,2-a]pyridine-3-carboxamide]
22 | 4.9 nM | CC(O)c1cnc2c(NC(=O)c3cc(-c4ncccn4)c(C(F)(F)F)cc3F)c(-c3ccc(F)cc3)ccn12 (single isomer, unassigned) [Compound 52, (R) or (S)-2-fluoro-N-[7-(4-fluorophenyl)-3-(1-hydroxyethyl)imidazo[1,2-a]pyridin-8-yl]-5-pyrimidin-2-yl-4-(trifluoromethyl)benzamide]
23 | 4.5 nM | Cn1ccc(-c2cc(C(=O)Nc3c(-c4ccccc4)ccc4c(C(C)(C)O)cnn34)ccc2C(F)(F)F)n1 [Compound 37, N-[3-(1-hydroxy-1-methylethyl)-6-phenylpyrazolo[1,5-a]pyridin-7-yl]-3-(1-methyl-1H-pyrazol-3-yl)-4-(trifluoromethyl)benzamide]
24 | 4.3 nM | CC(C)(O)c1n[nH]c2c(NC(=O)c3cc(-c4ncccn4)c(C(F)(F)F)cc3F)c(-c3ccccc3)ccc12 [Compound 45, 2-Fluoro-N-(3-(2-hydroxypropan-2-yl)-6-phenyl-1H-indazol-7-yl)-5-(pyrimidin-2-yl)-4-(trifluoromethyl)benzamide]
25 | 4.2 nM | [2H]C(C)(O)c1cnc2c(NC(=O)c3cc(-c4ncccn4)c(C(F)(F)F)cc3F)c(-c3ccccc3)ccn12 (single isomer, unassigned) [Compound 74, (R and S)-2-Fluoro-N-(3-(1-hydroxyethyl-1-d)-7-phenylimidazo[1,2-a]pyridin-8-yl)-5-(pyrimidin-2-yl)-4-(trifluoromethyl)benzamide]
26 | 4 nM | Cn1ccc(-c2cc(C(=O)Nc3cn4c(CO)ncc4nc3-c3ccccc3)c(F)cc2C(F)(F)F)n1 [Compound 61, 2-Fluoro-N-(6-(hydroxymethyl)-2-phenylimidazo[1,5-a]pyrimidin-3-yl)-5-(1-methyl-1H-pyrazol-3-yl)-4-(trifluoromethyl)benzamide]
27 | 2.2 nM | CC(O)c1cnc2c(NC(=O)c3ccc(C(F)(F)F)c(-c4ccn(C)n4)c3)c(-c3ccccc3)ccn12 (single isomer, unassigned) [Compound 15, (R) or (S)-N-[3-(1-hydroxyethyl)-7-phenylimidazo[1,2-a]pyridin-8-yl]-3-(1-methyl-1H-pyrazol-3-yl)-4-(trifluoromethyl)benzamide]
